Article PMC10065276, “Enhanced therapeutic window for antimicrobial Pept-ins by investigating their structure-activity relationship” (PLOS ONE, 2023)
Like-named read-outs stand apart in the source and are kept apart here. Residues, ends and D or L forms follow the SMILES beside them.

Tested on: E. coli BL21
Description: The peptide MIC was determined via the broth microdilution assay according to the EUCAST guideline, using 96-well polystyrene flat-bottom microtiter plates (BD Biosciences). Briefly, a single colony was inoculated in 5 mL Mueller-Hinton (MH) medium and incubated, while shaking at 37°C, to the end-exponential growth phase. The bacterial culture was subsequently diluted to 0.005 McFarland (McF) (~1.5x10^6 CFU/mL) with fresh MH medium. Two-fold serial peptide-dilutions were prepared in 50 μL MH medium resulting in a concentration range of 0.75 to 100 μg/mL (at least three wells for each concentration). Afterwards, 50 μL of the freshly diluted bacterial suspension (0.005 McF) was mixed with different peptide concentrations in the 96-well plate, performed in triplicates. The plate was ultimately incubated at 37°C overnight without shaking for 17 hours. The MIC was determined as the lowest peptide concentration without visible bacterial growth.

## CC(C)C[C@H](NC(=O)CNC(=O)[C@H](CC(N)=O)NC(=O)[C@@H]1CCCN1C(=O)[C@H](CC(N)=O)NC(=O)[C@H](CC(N)=O)NC(=O)[C@@H](NC(=O)[C@H](CC(C)C)NC(=O)[C@H](C)NC(=O)[C@H](CC(C)C)NC(=O)CNC(=O)[C@H](CC(C)C)NC(=O)CNC(=O)[C@@H](N)CC(N)=O)C(C)C)C(=O)NCC(=O)N[C@@H](CC(C)C)C(=O)N[C@@H](C)C(=O)N[C@@H](CC(C)C)C(=O)N[C@H](C(=O)N[C@@H](CC(N)=O)C(=O)N[C@@H](CC(N)=O)C(=O)O)C(C)C [Peptide P2_N] (H-NGLGLALVNNPNGLGLALVNN-OH)
S1 Table, gatekeeper modification, broth microdilution, MH medium, 37°C, 17 h
  BL21 MIC: >100.00 µg/mL

## CC[C@H](C)[C@H](NC(=O)CNC(=O)[C@H](CC(C)C)NC(=O)[C@H](C)NC(=O)[C@@H]1CCCN1C(=O)[C@H](C)NC(=O)[C@H](CCCNC(=N)N)NC(=O)[C@H](CC(C)C)NC(=O)[C@H](C)NC(=O)[C@@H](NC(=O)[C@H](C)NC(=O)[C@@H](NC(=O)CNC(=O)[C@H](CC(C)C)NC(=O)[C@@H](N)CCCNC(=N)N)[C@@H](C)CC)C(C)C)C(=O)N[C@@H](C)C(=O)N[C@H](C(=O)N[C@@H](C)C(=O)N[C@@H](CC(C)C)C(=O)N[C@@H](C)C(=O)N[C@@H](CCCNC(=N)N)C(=O)O)C(C)C [Peptide P33_3R_4] (H-RLGIAVALRAPALGIAVALAR-OH)
BL21, 17 h
  BL21 MIC: 50.00 µg/mL

## CC(C)C[C@H](NC(=O)CNC(=O)[C@H](CCCNC(=N)N)NC(=O)[C@H](C)NC(=O)[C@H](C)NC(=O)[C@H](CCCNC(=N)N)NC(=O)[C@@H](NC(=O)[C@H](CC(C)C)NC(=O)[C@H](C)NC(=O)[C@H](CC(C)C)NC(=O)CNC(=O)[C@H](CC(C)C)NC(=O)CNC(=O)[C@@H](N)CCCNC(=N)N)C(C)C)C(=O)NCC(=O)N[C@@H](CC(C)C)C(=O)N[C@@H](C)C(=O)N[C@@H](CC(C)C)C(=O)N[C@H](C(=O)N[C@@H](C)C(=O)N[C@@H](CCCNC(=N)N)C(=O)O)C(C)C [Peptide P2_4R_A] (H-RGLGLALVRAARGLGLALVAR-OH)
BL21, 17 h
  BL21 MIC: 12.50 µg/mL

## CC(C)C[C@H](NC(=O)CNC(=O)[C@H](CCCNC(=N)N)NC(=O)[C@@H]1CCCN1C(=O)[C@H](CCCNC(=N)N)NC(=O)[C@H](CCCNC(=N)N)NC(=O)[C@@H](NC(=O)[C@H](CC(C)C)NC(=O)[C@H](C)NC(=O)[C@H](CC(C)C)NC(=O)CNC(=O)[C@H](CC(C)C)NC(=O)CNC(=O)[C@@H](N)CCCNC(=N)N)[C@@H](C)O)C(=O)NCC(=O)N[C@@H](CC(C)C)C(=O)N[C@@H](C)C(=O)N[C@@H](CC(C)C)C(=O)N[C@H](C(=O)N[C@@H](CCCNC(=N)N)C(=O)N[C@@H](CCCNC(=N)N)C(=O)O)[C@@H](C)O [V7T (P2)] (H-RGLGLALTRRPRGLGLALTRR-OH)
BL21, 17 h
  BL21 MIC: 50.00 µg/mL

## CC[C@H](C)[C@H](NC(=O)CNC(=O)[C@H](CC(C)C)NC(=O)[C@H](CCCNC(=N)N)NC(=O)[C@@H]1CCCN1C(=O)[C@H](CCCNC(=N)N)NC(=O)[C@H](CCCNC(=N)N)NC(=O)[C@H](CC(C)C)NC(=O)[C@H](C)NC(=O)[C@@H](NC(=O)[C@H](C)NC(=O)[C@@H](NC(=O)CNC(=O)[C@H](CC(C)C)NC(=O)[C@H](C)N)[C@@H](C)CC)C(C)C)C(=O)N[C@@H](C)C(=O)N[C@H](C(=O)N[C@@H](C)C(=O)N[C@@H](CC(C)C)C(=O)N[C@@H](CCCNC(=N)N)C(=O)N[C@@H](CCCNC(=N)N)C(=O)O)C(C)C [Peptide P33-R1A] (H-ALGIAVALRRPRLGIAVALRR-OH)
BL21, 17 h
  BL21 MIC: 6.25 µg/mL

## CC[C@H](C)[C@H](NC(=O)CNC(=O)[C@H](CC(C)C)NC(=O)[C@@H](N)CCCNC(=N)N)C(=O)N[C@@H](C)C(=O)N[C@H](C(=O)N[C@@H](C)C(=O)N[C@@H](CC(C)C)C(=O)N[C@@H](C)C(=O)N[C@@H](CCCNC(=N)N)C(=O)N1CCC[C@H]1C(=O)N[C@@H](CCCNC(=N)N)C(=O)N[C@@H](CC(C)C)C(=O)NCC(=O)N[C@H](C(=O)N[C@@H](C)C(=O)N[C@H](C(=O)N[C@@H](C)C(=O)N[C@@H](CC(C)C)C(=O)N[C@@H](CCCNC(=N)N)C(=O)N[C@@H](CCCNC(=N)N)C(=O)O)C(C)C)[C@@H](C)CC)C(C)C [Peptide P33-R9A] (H-RLGIAVALARPRLGIAVALRR-OH)
BL21, 17 h
  BL21 MIC: 6.25 µg/mL
